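Cultured in 96-well plates, cells were exposed to test compound for 48 hours across five concentrations. GI50 = concentration required for 50% inhibition of growth.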 Calls of active or inactive are those of the source. Cut-off read from the data, not from the text of the source: active = GI50 up to about 1.1 µM and inactive = higher.
Experiments:
Test in all cases: NCI tumour cell line growth inhibition, 48 h
A498 = test system: A498
A549 = test system: A549
HCT-116 = test system: HCT-116
HT-29 = test system: HT-29
K562 = test system: K562
KM12 = test system: KM12
LOX IMVI = test system: LOX IMVI
MOLT-4 = test system: MOLT-4
NCI-H23 = test system: NCI-H23
NCI-H460 = test system: NCI-H460
RPMI-8226 = test system: RPMI-8226
RXF 393 = test system: RXF 393
SF-539 = test system: SF-539
SNB-75 = test system: SNB-75
TK-10 = test system: TK-10
UO-31 = test system: UO-31
NCI-H522 = test system: NCI-H522

Measured: GI50

C/C(=C1/N=C(c2cc([N+](=O)[O-])ccc2Cl)N(c2ccc(Br)cc2)C1=O)c1ccc(N(CCC#N)CCC#N)cc1C
inactive: A498 25.7 µM | A549 22.5 µM | HCT-116 15.6 µM | HT-29 36.9 µM | K562 7.78 µM | KM12 15.1 µM | LOX IMVI 7.5 µM | MOLT-4 9.62 µM | NCI-H23 42.7 µM | NCI-H460 25.1 µM | RPMI-8226 28.1 µM | RXF 393 16.8 µM | SF-539 52.2 µM | SNB-75 > 100 µM | TK-10 68.2 µM | UO-31 24.7 µM

Cc1cc(O)c2c3c1C(=O)Oc1c(CO)c(O)c(C(=O)O)c(c1O3)C=NN=Cc1c3c(c(CO)c(O)c1C(=O)O)OC(=O)c1c(C)cc(O)c(c1O3)C=NN=C2
inactive: A498 > 100 µM | A549 > 100 µM | HCT-116 > 100 µM | HT-29 > 100 µM | KM12 48.6 µM | LOX IMVI > 100 µM | NCI-H23 > 100 µM | NCI-H460 > 100 µM | RXF 393 > 100 µM | SF-539 > 100 µM | SNB-75 > 100 µM | TK-10 > 100 µM | UO-31 > 100 µM

N#Cc1c(-c2ccc(Cl)c(Cl)c2)c(-c2ccc(Cl)c(Cl)c2)nn(CC(=O)O)c1=O
inactive: A549 87.7 µM | HCT-116 41.5 µM | HT-29 33.3 µM | K562 43.9 µM | KM12 43.7 µM | LOX IMVI 41.3 µM | MOLT-4 68.4 µM | NCI-H460 36.9 µM | RPMI-8226 79.4 µM | RXF 393 20.1 µM | SNB-75 30.5 µM | TK-10 > 100 µM | UO-31 57.8 µM

C/C(=N/N)c1ccc2[nH]c3c(C)cc([N+](=O)[O-])c(C)c3c2c1
inactive: A549 11.1 µM | HCT-116 4.09 µM | HT-29 8.2 µM | K562 2.93 µM | KM12 > 10 µM | LOX IMVI 4.99 µM | MOLT-4 2.79 µM | NCI-H460 5.87 µM | NCI-H522 8.51 µM | RPMI-8226 8.97 µM | SF-539 4.76 µM | SNB-75 22.9 µM | TK-10 12.2 µM | UO-31 10.5 µM

COC(=O)CC(NC(=O)OCc1ccccc1)C(C(=O)OCc1ccccc1)C1(C)OCCO1 (stereo not given)
inactive: A498 18.2 µM | A549 32.4 µM | HCT-116 40.4 µM | HT-29 53.6 µM | K562 43.4 µM | LOX IMVI 28.9 µM | MOLT-4 20.5 µM | NCI-H23 26.4 µM | NCI-H460 34.7 µM | RPMI-8226 22.1 µM | RXF 393 21.4 µM | SF-539 54.6 µM | SNB-75 23.6 µM | TK-10 57.1 µM | UO-31 18.2 µM

Cc1c(Cl)c2ccccc2n1S(=O)(=O)c1ccccc1
inactive: A549 41.3 µM | HCT-116 39.2 µM | HT-29 46 µM | K562 38.5 µM | KM12 37.9 µM | MOLT-4 37.4 µM | NCI-H23 41.1 µM | NCI-H460 44.6 µM | NCI-H522 19.6 µM | RPMI-8226 27.8 µM | SF-539 54.1 µM | SNB-75 19.9 µM | TK-10 65.9 µM | UO-31 26.1 µM

COc1cc2c(cc1OC(=O)CC(C)O)C1C(OC2=O)C(OC(C)=O)C=C2CCN(C)[C@H]21 (stereo not given in full)
inactive: A498 17.2 µM | A549 64.3 µM | HCT-116 58.7 µM | HT-29 > 100 µM | K562 > 100 µM | KM12 > 100 µM | LOX IMVI 40.4 µM | MOLT-4 47.2 µM | NCI-H23 33.1 µM | NCI-H460 > 100 µM | NCI-H522 97.7 µM | SF-539 21.4 µM | SNB-75 16.1 µM | TK-10 26.3 µM | UO-31 47 µM

Reference: ChEMBL document CHEMBL1201862, “PubChem BioAssay data set” (2004)
